Data published in ChEMBL document CHEMBL6083181, “Advances in SHP2 tunnel allosteric inhibitors and bifunctional molecules” (Eur J Med Chem, 2024).
pIC50: −log10 of the molar value.

Assays:
[1] = Oral bioavailability in human; assay type: ADME, organism-based; conditions: in vivo
[2] = biological target: T1, Tyrosine-protein phosphatase non-receptor type 11 (Homo sapiens, UniProt Q06124); assay: Inhibition of human SHP2
T1 sequence (Q06124 whole entry): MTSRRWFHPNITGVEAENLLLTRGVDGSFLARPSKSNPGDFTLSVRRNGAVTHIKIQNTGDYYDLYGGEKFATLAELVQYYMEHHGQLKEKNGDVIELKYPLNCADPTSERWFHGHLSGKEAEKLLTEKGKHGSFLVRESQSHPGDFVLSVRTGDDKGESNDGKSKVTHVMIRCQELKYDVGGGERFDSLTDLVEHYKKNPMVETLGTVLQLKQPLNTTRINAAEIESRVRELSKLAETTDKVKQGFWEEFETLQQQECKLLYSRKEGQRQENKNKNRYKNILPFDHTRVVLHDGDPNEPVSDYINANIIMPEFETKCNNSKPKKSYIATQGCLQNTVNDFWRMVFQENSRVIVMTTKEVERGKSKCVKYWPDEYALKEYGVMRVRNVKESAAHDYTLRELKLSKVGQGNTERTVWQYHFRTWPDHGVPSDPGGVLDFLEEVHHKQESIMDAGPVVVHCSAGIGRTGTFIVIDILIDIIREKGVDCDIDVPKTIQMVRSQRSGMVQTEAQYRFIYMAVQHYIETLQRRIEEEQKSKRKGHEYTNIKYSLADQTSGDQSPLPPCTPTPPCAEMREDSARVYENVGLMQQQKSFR

[3] = test system: KYSE-520 cell line; assay: Antiproliferative activity against human KYSE520 cells assessed as reduction in cell viability by WST-8 assay
[4] = Oral bioavailability in Sprague-Dawley rat at 10 mg/kg by LC-MS analysis; assay type: ADME, organism-based; conditions: in vivo

CC1(N)CCN(c2cnc(-c3cccc(Cl)c3Cl)c(N)n2)CC1
bioavailability [1]: 46%

C[C@H]1OCC2(CCN(c3cnc(Sc4ccnc(NC(=O)CCCCCCNC(=O)c5cccnc5)c4Cl)c(N)n3)CC2)[C@H]1N
pIC50 [2]: > 8.00

CC1(N)CCN(c2cnc3c(Sc4ccncc4Cl)n[nH]c3n2)CC1
pIC50 [3]: 5.24
bioavailability [4]: 42.5%
